Laboratory results as given in US20230085307A1, “PYRIDAZINONE COMPOUND AND HERBICIDE” (NISSAN CHEMICAL CORPORATION, priority 2019, published 2023).

What was measured:
redroot pigweed [1] = test: Test Example 5: herbicidal effect by foliage application, plastic box (Table 20, symbol N); assay type: in vivo, redroot pigweed (Amaranthus retroflexus); conditions: foliage application, 320 g/ha, evaluated three weeks after application
How it was run: (§1)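 Plants sown in sterilized diluvial soil and grown 14 days in a greenhouse at 25° C to 30° C, then sprayed on the foliage with the compound's emulsion diluted in water to a predetermined herbicide amount. Injury to weeds and crops scored three weeks after application on a visual rating scale.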

green foxtail [2] = test: Test Example 4: herbicidal effect by soil treatment (Table 19, symbol G); assay type: in vivo, green foxtail (Setaria viridis)
How it was run: (§2)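 Seeds were sown in sterilized diluvial soil and covered with about 1.5 cm of soil. An emulsion formulation diluted with water to a predetermined herbicide amount was sprayed evenly onto the soil surface. Plants grew in a greenhouse at 25° C. to 30° C., and the effect was scored three weeks after application using criteria from an earlier test.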

Italian ryegrass [3] = test: Test Example 5: herbicidal effect by foliage application, plastic box (Table 20, symbol K); assay type: in vivo, Italian ryegrass (Lolium multiflorum); conditions: foliage application, 320 g/ha, evaluated three weeks after application
How it was run: as §1

barnyard grass [4] = test: Test Example 4: herbicidal effect by soil treatment (Table 19, symbol H); assay type: in vivo, barnyard grass (Echinochloa crus-galli)
How it was run: as §2

windgrass [5] = test: Test Example 5: herbicidal effect by foliage application, plastic box (Table 20, symbol L); assay type: in vivo, windgrass (Apera spica-venti); conditions: foliage application, 320 g/ha, evaluated three weeks after application
How it was run: as §1

chickweed [6] = test: Test Example 5: herbicidal effect by foliage application, plastic box (Table 20, symbol P); assay type: in vivo, common chickweed (Stellaria media); conditions: foliage application, 320 g/ha, evaluated three weeks after application
How it was run: as §1

lambsquarters [7] = test: Test Example 4: herbicidal effect by soil treatment (Table 19, symbol O); assay type: in vivo, lambsquarters (Chenopodium album)
How it was run: as §2

redroot pigweed [8] = test: Test Example 4: herbicidal effect by soil treatment (Table 19, symbol N); assay type: in vivo, redroot pigweed (Amaranthus retroflexus)
How it was run: as §2

velvetleaf [9] = test: Test Example 5: herbicidal effect by foliage application, plastic box (Table 20, symbol M); assay type: in vivo, velvetleaf (Abutilon theophrasti); conditions: foliage application, 320 g/ha, evaluated three weeks after application
How it was run: as §1

southern crabgrass [10] = test: Test Example 5: herbicidal effect by foliage application, plastic box (Table 20, symbol F); assay type: in vivo, southern crabgrass (Digitaria ciliaris); conditions: foliage application, 320 g/ha, evaluated three weeks after application
How it was run: as §1

Japanese bulrush = test: Test Example 1: herbicidal activity, application before weed generation under submerged conditions (Table 16, symbol B); assay type: in vivo, Japanese bulrush (Schoenoplectus juncoides); conditions: 320 g/ha applied herbicide
How it was run: (§3)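 Submerged Wagner pots (alluvial soil, 4 cm water) sown with weed seeds and planted with 2.5-leaf rice seedlings; emulsifiable concentrate diluted in water applied to water surface on sowing day. Held in greenhouse at 25-30 °C; injury scored 0-5 by herbicidal rate after three weeks.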

velvetleaf [11] = test: Test Example 4: herbicidal effect by soil treatment (Table 19, symbol M); assay type: in vivo, velvetleaf (Abutilon theophrasti)
How it was run: as §2

windgrass [12] = test: Test Example 4: herbicidal effect by soil treatment (Table 19, symbol L); assay type: in vivo, windgrass (Apera spica-venti)
How it was run: as §2

southern crabgrass [13] = test: Test Example 4: herbicidal effect by soil treatment (Table 19, symbol F); assay type: in vivo, southern crabgrass (Digitaria ciliaris)
How it was run: as §2

barnyard grass [14] = test: Test Example 3: herbicidal effect by foliage application, Wagner pot (Table 18, symbol H); assay type: in vivo, barnyard grass (Echinochloa crus-galli); conditions: 320 g/ha
How it was run: (§4)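 Plants were sown in alluvial soil held under 0.1–0.5 cm standing water and grown 14 days in a greenhouse at 25–30 °C. An emulsifiable formulation, water-diluted to the set dose, was then sprayed onto the foliage, and effects were scored three weeks later using previously defined criteria.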

Italian ryegrass [15] = test: Test Example 4: herbicidal effect by soil treatment (Table 19, symbol K); assay type: in vivo, Italian ryegrass (Lolium multiflorum)
How it was run: as §2

blackgrass [16] = test: Test Example 4: herbicidal effect by soil treatment (Table 19, symbol J); assay type: in vivo, blackgrass (Alopecurus myosuroides)
How it was run: as §2

barnyard grass [17] = test: Test Example 5: herbicidal effect by foliage application, plastic box (Table 20, symbol H); assay type: in vivo, barnyard grass (Echinochloa crus-galli); conditions: foliage application, 320 g/ha, evaluated three weeks after application
How it was run: as §1

late watergrass = test: Test Example 1: herbicidal activity, application before weed generation under submerged conditions (Table 16, symbol A); assay type: in vivo, late watergrass (Echinochloa oryzicola); conditions: 320 g/ha applied herbicide
How it was run: as §3

wild oat [18] = test: Test Example 5: herbicidal effect by foliage application, plastic box (Table 20, symbol I); assay type: in vivo, wild oat (Avena fatua); conditions: foliage application, 320 g/ha, evaluated three weeks after application
How it was run: as §1

oval-leafed pondweed = test: Test Example 1: herbicidal activity, application before weed generation under submerged conditions (Table 16, symbol C); assay type: in vivo, oval-leafed pondweed (Monochoria vaginalis); conditions: 320 g/ha applied herbicide
How it was run: as §3

persian speedwell [19] = test: Test Example 5: herbicidal effect by foliage application, plastic box (Table 20, symbol R); assay type: in vivo, Persian speedwell (Veronica persica); conditions: foliage application, 320 g/ha, evaluated three weeks after application
How it was run: as §1

wild oat [20] = test: Test Example 4: herbicidal effect by soil treatment (Table 19, symbol I); assay type: in vivo, wild oat (Avena fatua)
How it was run: as §2

Chinese sprangletop = test: Test Example 3: herbicidal effect by foliage application, Wagner pot (Table 18, symbol D); assay type: in vivo, chinese sprangletop (Leptochloa chinensis); conditions: 320 g/ha
How it was run: as §4

blackgrass [21] = test: Test Example 5: herbicidal effect by foliage application, plastic box (Table 20, symbol J); assay type: in vivo, blackgrass (Alopecurus myosuroides); conditions: foliage application, 320 g/ha, evaluated three weeks after application
How it was run: as §1

rice flat sedge = test: Test Example 3: herbicidal effect by foliage application, Wagner pot (Table 18, symbol E); assay type: in vivo, rice flat sedge (Cyperus iria); conditions: 320 g/ha
How it was run: as §4

lambsquarters [22] = test: Test Example 5: herbicidal effect by foliage application, plastic box (Table 20, symbol O); assay type: in vivo, lambsquarters (Chenopodium album); conditions: foliage application, 320 g/ha, evaluated three weeks after application
How it was run: as §1

chickweed [23] = test: Test Example 4: herbicidal effect by soil treatment (Table 19, symbol P); assay type: in vivo, common chickweed (Stellaria media)
How it was run: as §2

green foxtail [24] = test: Test Example 5: herbicidal effect by foliage application, plastic box (Table 20, symbol G); assay type: in vivo, green foxtail (Setaria viridis); conditions: foliage application, 320 g/ha, evaluated three weeks after application
How it was run: as §1

persian speedwell [25] = test: Test Example 4: herbicidal effect by soil treatment (Table 19, symbol R); assay type: in vivo, Persian speedwell (Veronica persica)
How it was run: as §2

[26] = amount of applied herbicide 320 g/ha

Row | SMILES | herbicidal effect on N: redroot pigweed (redroot pigweed [1]) | herbicidal effect on K: Italian ryegrass (Italian ryegrass [3]) | herbicidal effect on L: windgrass (windgrass [5]) | herbicidal effect on P: chickweed (chickweed [6]) | herbicidal effect on M: velvetleaf (velvetleaf [9]) | herbicidal effect on F: southern crabgrass (southern crabgrass [10]) | Herbicidal effect on B: Japanese bulrush (grade 0-5) (Japanese bulrush) | herbicidal effect on H (barnyard grass), rating 0-5 (barnyard grass [14]) | herbicidal effect on H: barnyard grass (barnyard grass [17]) | Herbicidal effect on A: late watergrass (grade 0-5) (late watergrass) | herbicidal effect on I: wild oat (wild oat [18]) | Herbicidal effect on C: oval-leafed pondweed (grade 0-5) (oval-leafed pondweed) | herbicidal effect on R: persian speedwell (persian speedwell [19]) | herbicidal effect on D (Chinese sprangletop), rating 0-5 (Chinese sprangletop) | herbicidal effect on J: blackgrass (blackgrass [21]) | herbicidal effect on E (rice flat sedge), rating 0-5 (rice flat sedge) | herbicidal effect on O: lambsquarters (lambsquarters [22]) | herbicidal effect on G: green foxtail (green foxtail [24]) | other results
1 | Cc1nn(C)c(=O)c(-c2c(-c3ccc(Cl)c(Cl)c3)sc3ccc(F)cc23)c1O [2-081] | 5 (Herbicidal rate of 90% or more (almost completely withered)) | 5 (Herbicidal rate of 90% or more (almost completely withered)) | 5 (Herbicidal rate of 90% or more (almost completely withered)) | 5 (Herbicidal rate of 90% or more (almost completely withered)) | 5 (Herbicidal rate of 90% or more (almost completely withered)) | 4 (Herbicidal rate of 70% or more and less than 90%) | 2 (Herbicidal rate of 20% or more and less than 40%) | 5 (Herbicidal rate of 90% or more (almost completely withered)) | 5 (Herbicidal rate of 90% or more (almost completely withered)) | 4 (Herbicidal rate of 70% or more and less than 90%) | 4 (Herbicidal rate of 70% or more and less than 90%) | 0 (Herbicidal rate of 5% or less (almost no effect)) | 5 (Herbicidal rate of 90% or more (almost completely withered)) | 3 (Herbicidal rate of 40% or more and less than 70%) | 2 (Herbicidal rate of 20% or more and less than 40%) | 5 (Herbicidal rate of 90% or more (almost completely withered)) | 5 (Herbicidal rate of 90% or more (almost completely withered)) | 5 (Herbicidal rate of 90% or more (almost completely withered)) | herbicidal effect rating, G: green foxtail (green foxtail [2]; 320 g/ha): 0 (Herbicidal rate of 5% or less (almost no effect)); herbicidal effect rating, H: barnyard grass (barnyard grass [4]; 320 g/ha): 0 (Herbicidal rate of 5% or less (almost no effect)); herbicidal effect rating, O: lambsquarters (lambsquarters [7]; 320 g/ha): 4 (Herbicidal rate of 70% or more and less than 90%); herbicidal effect rating, N: redroot pigweed (redroot pigweed [8]; 320 g/ha): 5 (Herbicidal rate of 90% or more (almost completely withered)); herbicidal effect rating, M: velvetleaf (velvetleaf [11]; 320 g/ha): 3 (Herbicidal rate of 40% or more and less than 70%); herbicidal effect rating, L: windgrass (windgrass [12]; 320 g/ha): 0 (Herbicidal rate of 5% or less (almost no effect)); herbicidal effect rating, F: southern crabgrass (southern crabgrass [13]; 320 g/ha): 0 (Herbicidal rate of 5% or less (almost no effect)); herbicidal effect rating, K: Italian ryegrass (Italian ryegrass [15]; 320 g/ha): 4 (Herbicidal rate of 70% or more and less than 90%); herbicidal effect rating, J: blackgrass (blackgrass [16]; 320 g/ha): 0 (Herbicidal rate of 5% or less (almost no effect)); herbicidal effect rating, I: wild oat (wild oat [20]; 320 g/ha): 0 (Herbicidal rate of 5% or less (almost no effect)); herbicidal effect rating, P: chickweed (chickweed [23]; 320 g/ha): 3 (Herbicidal rate of 40% or more and less than 70%); herbicidal effect rating, R: persian speedwell (persian speedwell [25]; 320 g/ha): 4 (Herbicidal rate of 70% or more and less than 90%)
2 | Cc1nn(C)c(=O)c(-c2c(-c3ccc(OC(C)C)cc3)sc3ccc(Cl)cc23)c1O [2-107] | 4 (Herbicidal rate of 70% or more and less than 90%) | 0 (Herbicidal rate of 5% or less (almost no effect)) | 4 (Herbicidal rate of 70% or more and less than 90%) | 5 (Herbicidal rate of 90% or more (almost completely withered)) | 3 (Herbicidal rate of 40% or more and less than 70%) | 3 (Herbicidal rate of 40% or more and less than 70%) | 0 (Herbicidal rate of 5% or less (almost no effect)) | 4 (Herbicidal rate of 70% or more and less than 90%) | 4 (Herbicidal rate of 70% or more and less than 90%) | 2 (Herbicidal rate of 20% or more and less than 40%) | 0 (Herbicidal rate of 5% or less (almost no effect)) | 0 (Herbicidal rate of 5% or less (almost no effect)) | 5 (Herbicidal rate of 90% or more (almost completely withered)) | 0 (Herbicidal rate of 5% or less (almost no effect)) | 3 (Herbicidal rate of 40% or more and less than 70%) | 2 (Herbicidal rate of 20% or more and less than 40%) | 3 (Herbicidal rate of 40% or more and less than 70%) | 4 (Herbicidal rate of 70% or more and less than 90%) | G: green foxtail, herbicidal effect rating (green foxtail [2]; [26]): 0 (Herbicidal rate of 5% or less (almost no effect)); H: barnyard grass, herbicidal effect rating (barnyard grass [4]; [26]): 0 (Herbicidal rate of 5% or less (almost no effect)); O: lambsquarters, herbicidal effect rating (lambsquarters [7]; [26]): 0 (Herbicidal rate of 5% or less (almost no effect)); N: redroot pigweed, herbicidal effect rating (redroot pigweed [8]; [26]): 0 (Herbicidal rate of 5% or less (almost no effect)); M: velvetleaf, herbicidal effect rating (velvetleaf [11]; [26]): 0 (Herbicidal rate of 5% or less (almost no effect)); L: windgrass, herbicidal effect rating (windgrass [12]; [26]): 0 (Herbicidal rate of 5% or less (almost no effect)); F: southern crabgrass, herbicidal effect rating (southern crabgrass [13]; [26]): 0 (Herbicidal rate of 5% or less (almost no effect)); K: Italian ryegrass, herbicidal effect rating (Italian ryegrass [15]; [26]): 0 (Herbicidal rate of 5% or less (almost no effect)); J: blackgrass, herbicidal effect rating (blackgrass [16]; [26]): 0 (Herbicidal rate of 5% or less (almost no effect)); I: wild oat, herbicidal effect rating (wild oat [20]; [26]): 0 (Herbicidal rate of 5% or less (almost no effect)); P: chickweed, herbicidal effect rating (chickweed [23]; [26]): 0 (Herbicidal rate of 5% or less (almost no effect)); R: persian speedwell, herbicidal effect rating (persian speedwell [25]; [26]): 5 (Herbicidal rate of 90% or more (almost completely withered))
